Laboratory results taken from PubChem BioAssay (NCI).
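Protocol summary: plate cells (96-well), add compound at 5 concentrations, incubate 48 h, interpolate endpoints linearly. GI50 marks 50% less growth. TGI denotes the concentration required for complete inhibition of growth.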

Tests used:
Assay in all cases: growth of human tumour cells (NCI), 48 h
IGROV1 ovarian = system: IGROV1 ovarian
SF-268 CNS = system: SF-268 CNS
SNB-75 CNS = system: SNB-75 CNS
OVCAR-4 ovarian = system: OVCAR-4 ovarian
OVCAR-5 ovarian = system: OVCAR-5 ovarian
SK-OV-3 ovarian = system: SK-OV-3 ovarian
T-47D breast = system: T-47D breast
SN12C renal = system: SN12C renal
SK-MEL-28 melanoma = system: SK-MEL-28 melanoma
SF-295 CNS = system: SF-295 CNS
COLO 205 colon = system: COLO 205 colon
HL-60(TB) leukemia = system: HL-60(TB) leukemia
KM12 colon = system: KM12 colon
UO-31 renal = system: UO-31 renal
TK-10 renal = system: TK-10 renal
NCI-H23 lung = system: NCI-H23 lung
NCI/ADR-RES ovarian = system: NCI/ADR-RES ovarian
SK-MEL-5 melanoma = system: SK-MEL-5 melanoma
BT-549 breast = system: BT-549 breast
U251 CNS = system: U251 CNS
MALME-3M melanoma = system: MALME-3M melanoma
OVCAR-3 ovarian = system: OVCAR-3 ovarian
HCT-116 colon = system: HCT-116 colon
MDA-MB-231 breast = system: MDA-MB-231 breast
SNB-19 CNS = system: SNB-19 CNS
SK-MEL-2 melanoma = system: SK-MEL-2 melanoma
HOP-62 NSCLC = system: HOP-62 NSCLC
ACHN renal = system: ACHN renal
CAKI-1 renal = system: CAKI-1 renal
SF-539 CNS = system: SF-539 CNS
MCF7 breast = system: MCF7 breast
LOX IMVI melanoma = system: LOX IMVI melanoma
786-0 renal = system: 786-0 renal
RPMI-8226 leukemia = system: RPMI-8226 leukemia
UACC-257 melanoma = system: UACC-257 melanoma
DU-145 prostate = system: DU-145 prostate
NCI-H460 lung = system: NCI-H460 lung
MDA-MB-435 = system: MDA-MB-435
CCRF-CEM leukemia = system: CCRF-CEM leukemia
HS 578T breast = system: HS 578T breast
HCC-2998 colon = system: HCC-2998 colon
SW-620 colon = system: SW-620 colon
HT29 colon = system: HT29 colon
NCI-H226 lung = system: NCI-H226 lung
RXF 393 renal = system: RXF 393 renal
A498 renal = system: A498 renal
K-562 leukemia = system: K-562 leukemia
OVCAR-8 ovarian = system: OVCAR-8 ovarian
PC-3 prostate = system: PC-3 prostate
MOLT-4 leukemia = system: MOLT-4 leukemia
NCI-H522 lung = system: NCI-H522 lung
A549 NSCLC = system: A549 NSCLC
M14 melanoma = system: M14 melanoma
HCT-15 colon = system: HCT-15 colon
UACC-62 melanoma = system: UACC-62 melanoma
SR leukemia = system: SR leukemia

With CC(C)=CC(=O)OC1C(CO)OC(Oc2cc(O)c3c(=O)cc(-c4ccc(O)c(O)c4)oc3c2)C(OC2OC(C)C(O)C(O)C2O)C1O (configuration not stated) the GI50 (IGROV1 ovarian) was over 100 µM, the TGI (IGROV1 ovarian) was over 100 µM and the GI50 (SF-268 CNS) was over 100 µM. It also gave a TGI (SF-268 CNS) of over 100 µM, a GI50 (SNB-75 CNS) of over 100 µM and a TGI (SNB-75 CNS) of over 100 µM. It also gave a GI50 (OVCAR-4 ovarian) of over 100 µM, a TGI (OVCAR-4 ovarian) of over 100 µM and a GI50 (OVCAR-5 ovarian) of over 100 µM. It also gave a TGI (OVCAR-5 ovarian) of over 100 µM, a GI50 (SK-OV-3 ovarian) of over 100 µM and a TGI (SK-OV-3 ovarian) of over 100 µM. It also gave a GI50 (T-47D breast) of over 100 µM, a TGI (T-47D breast) of over 100 µM and a GI50 (SN12C renal) of over 100 µM. For the same compound, the TGI (SN12C renal) was over 100 µM, the GI50 (SK-MEL-28 melanoma) was over 100 µM and the TGI (SK-MEL-28 melanoma) was over 100 µM. The GI50 (SF-295 CNS) was over 100 µM, the TGI (SF-295 CNS) was over 100 µM and the GI50 (COLO 205 colon) was over 100 µM. The TGI (COLO 205 colon) was over 100 µM, the GI50 (HL-60(TB) leukemia) was over 100 µM and the TGI (HL-60(TB) leukemia) was over 100 µM. The GI50 (KM12 colon) was over 100 µM, the TGI (KM12 colon) was over 100 µM and the GI50 (UO-31 renal) was over 100 µM. For the same compound, the TGI (UO-31 renal) was over 100 µM, the GI50 (TK-10 renal) was over 100 µM and the TGI (TK-10 renal) was over 100 µM. For the same compound, the GI50 (NCI-H23 lung) was over 100 µM, the TGI (NCI-H23 lung) was over 100 µM and the GI50 (NCI/ADR-RES ovarian) was over 100 µM. The TGI (NCI/ADR-RES ovarian) was over 100 µM, the GI50 (SK-MEL-5 melanoma) was over 100 µM and the TGI (SK-MEL-5 melanoma) was over 100 µM. The GI50 (BT-549 breast) was over 100 µM, the TGI (BT-549 breast) was over 100 µM and the GI50 (U251 CNS) was over 100 µM. It also gave a TGI (U251 CNS) of over 100 µM, a GI50 (MALME-3M melanoma) of over 100 µM and a TGI (MALME-3M melanoma) of over 100 µM. The GI50 (OVCAR-3 ovarian) was over 100 µM, the TGI (OVCAR-3 ovarian) was over 100 µM and the GI50 (HCT-116 colon) was over 100 µM. It also gave a TGI (HCT-116 colon) of over 100 µM, a GI50 (MDA-MB-231 breast) of over 100 µM and a TGI (MDA-MB-231 breast) of over 100 µM. The GI50 (SNB-19 CNS) was over 100 µM, the TGI (SNB-19 CNS) was over 100 µM and the GI50 (SK-MEL-2 melanoma) was over 100 µM. It also gave a TGI (SK-MEL-2 melanoma) of over 100 µM, a GI50 (HOP-62 NSCLC) of over 100 µM and a TGI (HOP-62 NSCLC) of over 100 µM. The GI50 (ACHN renal) was over 100 µM, the TGI (ACHN renal) was over 100 µM and the GI50 (CAKI-1 renal) was over 100 µM. The TGI (CAKI-1 renal) was over 100 µM, the GI50 (SF-539 CNS) was over 100 µM and the TGI (SF-539 CNS) was over 100 µM. It also gave a GI50 (MCF7 breast) of over 100 µM, a TGI (MCF7 breast) of over 100 µM and a GI50 (LOX IMVI melanoma) of over 100 µM. It also gave a TGI (LOX IMVI melanoma) of over 100 µM, a GI50 (786-0 renal) of over 100 µM and a TGI (786-0 renal) of over 100 µM. The GI50 (RPMI-8226 leukemia) was 85.6 µM, the TGI (RPMI-8226 leukemia) was over 100 µM and the GI50 (UACC-257 melanoma) was over 100 µM. It also gave a TGI (UACC-257 melanoma) of over 100 µM, a GI50 (DU-145 prostate) of over 100 µM and a TGI (DU-145 prostate) of over 100 µM. For the same compound, the GI50 (NCI-H460 lung) was over 100 µM, the TGI (NCI-H460 lung) was over 100 µM and the GI50 (MDA-MB-435) was over 100 µM. For the same compound, the TGI (MDA-MB-435) was over 100 µM, the GI50 (CCRF-CEM leukemia) was over 100 µM and the TGI (CCRF-CEM leukemia) was over 100 µM. For the same compound, the GI50 (HS 578T breast) was over 100 µM, the TGI (HS 578T breast) was over 100 µM and the GI50 (HCC-2998 colon) was over 100 µM. It also gave a TGI (HCC-2998 colon) of over 100 µM, a GI50 (SW-620 colon) of over 100 µM and a TGI (SW-620 colon) of over 100 µM. It also gave a GI50 (HT29 colon) of over 100 µM, a TGI (HT29 colon) of over 100 µM and a GI50 (NCI-H226 lung) of over 100 µM. For the same compound, the TGI (NCI-H226 lung) was over 100 µM, the GI50 (RXF 393 renal) was over 100 µM and the TGI (RXF 393 renal) was over 100 µM. The GI50 (A498 renal) was over 100 µM, the TGI (A498 renal) was over 100 µM and the GI50 (K-562 leukemia) was over 100 µM. For the same compound, the TGI (K-562 leukemia) was over 100 µM, the GI50 (OVCAR-8 ovarian) was over 100 µM and the TGI (OVCAR-8 ovarian) was over 100 µM. It also gave a GI50 (PC-3 prostate) of over 100 µM, a TGI (PC-3 prostate) of over 100 µM and a GI50 (MOLT-4 leukemia) of over 100 µM. It also gave a TGI (MOLT-4 leukemia) of over 100 µM, a GI50 (NCI-H522 lung) of over 100 µM and a TGI (NCI-H522 lung) of over 100 µM. For the same compound, the GI50 (A549 NSCLC) was over 100 µM, the TGI (A549 NSCLC) was over 100 µM and the GI50 (M14 melanoma) was over 100 µM. It also gave a TGI (M14 melanoma) of over 100 µM, a GI50 (HCT-15 colon) of over 100 µM and a TGI (HCT-15 colon) of over 100 µM. It also gave a GI50 (UACC-62 melanoma) of over 100 µM, a TGI (UACC-62 melanoma) of over 100 µM and a GI50 (SR leukemia) of 50 µM. For the same compound, the TGI (SR leukemia) was 98.8 µM.
